# Reference: patent publication US20240277698A1, “METHODS OF USING ALDOSTERONE SYNTHASE INHIBITORS” (CINCOR PHARMA, INC., priority 2021, published 2024)
# Molecular target: T1, aldosterone synthase (Homo sapiens, UniProt P19099)
# T1 construct: synthesized in the adrenal cortex by aldosterone synthase; endogenous in cells; host or cells: adrenal cortex of healthy human subjects (in vivo, oral dosing)
# T1 sequence (P19099 25-503): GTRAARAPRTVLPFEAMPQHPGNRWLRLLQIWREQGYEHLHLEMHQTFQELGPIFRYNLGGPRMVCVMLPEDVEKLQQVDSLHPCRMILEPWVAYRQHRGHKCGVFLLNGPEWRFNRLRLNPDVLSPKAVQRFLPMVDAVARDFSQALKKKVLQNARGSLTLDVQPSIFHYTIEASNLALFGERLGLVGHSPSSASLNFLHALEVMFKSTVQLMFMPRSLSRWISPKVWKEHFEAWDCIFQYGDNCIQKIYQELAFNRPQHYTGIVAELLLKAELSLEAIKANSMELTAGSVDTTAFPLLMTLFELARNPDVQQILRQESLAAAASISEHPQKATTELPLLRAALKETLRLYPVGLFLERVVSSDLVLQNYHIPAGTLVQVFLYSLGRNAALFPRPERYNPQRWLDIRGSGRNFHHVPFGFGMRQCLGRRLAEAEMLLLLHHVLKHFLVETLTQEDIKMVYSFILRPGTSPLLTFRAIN
# Assay: MAD study: plasma aldosterone and precursors (18-hydroxycorticosterone, corticosterone, 11-deoxycorticosterone)
# Assay type: in vivo
# Conditions: for Plasma 11-deoxycorticosterone, Day −1 predose / Plasma 18-hydroxycorticosterone, Day −1 predose / Plasma aldosterone, Day −1 predose / Plasma corticosterone, Day −1 predose: baseline; for inhibition of aldosterone synthesis: normal salt diet and low salt diet, 10-day dosing
# Source text: For each subject, the study consisted of: • A screening period of up to 28 days; • A 5-day inpatient run-in period during which subjects adhered to a controlled, standardized diet and underwent baseline PD assessments; • A 15-day inpatient treatment period, during which subjects received (R)-compound 1 or placebo once daily for 10 days while adhering to a controlled, standardized diet, followed by PK and PD sampling over an additional 5 days; and • A follow-up visit 3 days (1 day) after discharge from the clinical unit. • A cortisol stimulation test (Cohorts 1 and 2 only) and standing aldosterone assessment (all cohorts) were performed on Days 1 and 10. Serial blood samples for PK and PD were obtained prior to and at specified time points over 24 hours after dosing on Day 1 as well as prior to and at specified time points over 120 hours after dosing on Day 10. In addition, blood samples for PK were collected prior to dosing on Days 8 and 9. Urine for PK and PD measurements was collected over 24 hours starting just prior to dosing on Day 1 as well as over 120 hours starting just prior to dosing on Day 10. […]
# [1] = 2.5 mg QD, normal salt diet, mean
smiles,measurement,setting,value
"CCC(=O)N[C@@H]1CCCc2c(-c3ccc4c(c3)CCC(=O)N4C)cncc21 [(R)-Compound 1, (R)—N-(4-(1-methyl-2-oxo-1,2,3,4-tetrahydroquinolin-6-yl)-5,6,7,8-tetrahydroisoquinolin-8-yl)propionamide]","Plasma 18-hydroxycorticosterone, Day 10, 24 hours postdose","2.5 mg QD, low salt diet, mean",961.8 pg/mL
same,"Plasma 18-hydroxycorticosterone, Day 10, predose","2.5 mg QD, low salt diet, mean",895.4 pg/mL
same,"Plasma 18-hydroxycorticosterone, Percent change from Day −1 to Day 10","2.5 mg QD, low salt diet, mean",−22.0%
same,"Plasma aldosterone, Day 1, 12 hours postdose","2.5 mg QD, low salt diet, mean",48.013 pg/mL
same,"Plasma aldosterone, Day 1, predose","2.5 mg QD, low salt diet, mean",151.988 pg/mL
same,"Plasma aldosterone, Day 10, 12 hours postdose","2.5 mg QD, low salt diet, mean",69.100 pg/mL
same,"Plasma aldosterone, Day 10, 24 hours postdose","2.5 mg QD, low salt diet, mean",112.213 pg/mL
same,"Plasma aldosterone, Day 10, predose","2.5 mg QD, low salt diet, mean",97.538 pg/mL
same,"Plasma aldosterone, Percent change from Day −1 to Day 10, predose","2.5 mg QD, low salt diet, mean",−56.540%
same,"Plasma corticosterone, Day 1, 12 hours postdose","2.5 mg QD, low salt diet, mean",1653.4 pg/mL
same,"Plasma corticosterone, Day 1, predose","2.5 mg QD, low salt diet, mean",3711.5 pg/mL
same,"Plasma corticosterone, Day 10, 12 hours postdose","2.5 mg QD, low salt diet, mean",3412.5 pg/mL
same,"Plasma corticosterone, Day 10, 24 hours postdose","2.5 mg QD, low salt diet, mean",10012.5 pg/mL
same,"Plasma corticosterone, Day 10, predose","2.5 mg QD, low salt diet, mean",7190.0 pg/mL
same,"Plasma corticosterone, Percent change from Day −1 to Day 10, predose","2.5 mg QD, low salt diet, mean",132.0%
same,"Plasma 11-deoxycorticosterone, Day −1 predose",[1],50.017 pg/mL
same,"Plasma 18-hydroxycorticosterone, Day −1 predose",[1],1185.8 pg/mL
same,"Plasma aldosterone, Day −1 predose",[1],153.667 pg/mL
same,"Plasma corticosterone, Day −1 predose",[1],6395.0 pg/mL
same,"Plasma 11-deoxycorticosterone, Day 1, 12 hours postdose",[1],23.667 pg/mL
same,"Plasma 11-deoxycorticosterone, Day 1, predose",[1],53.200 pg/mL
same,"Plasma 11-deoxycorticosterone, Day 2, predose",[1],69.617 pg/mL
same,"Plasma 11-deoxycorticosterone, Day 10, 12 hours postdose",[1],93.780 pg/mL
same,"Plasma 11-deoxycorticosterone, Day 10, 24 hours postdose",[1],177.400 pg/mL
same,"Plasma 11-deoxycorticosterone, Day 10, predose",[1],130.680 pg/mL
same,"Plasma 11-deoxycorticosterone, Percent change from Day −1 to Day 10, predose",[1],171.567%
same,"Plasma 18-hydroxycorticosterone, Day 1, 12 hours postdose",[1],267.3 pg/mL
same,"Plasma 18-hydroxycorticosterone, Day 1, predose",[1],1087.0 pg/mL
same,"Plasma 18-hydroxycorticosterone, Day 2, predose",[1],901.2 pg/mL
same,"Plasma 18-hydroxycorticosterone, Day 10, 12 hours postdose",[1],345.6 pg/mL
same,"Plasma 18-hydroxycorticosterone, Day 10, 24 hours postdose",[1],1238.0 pg/mL
same,"Plasma 18-hydroxycorticosterone, Day 10, predose",[1],1073.4 pg/mL
same,"Plasma 18-hydroxycorticosterone, Percent change from Day −1 to Day 10",[1],−10.4%
same,"Plasma aldosterone, Day 1, 12 hours postdose",[1],16.535 pg/mL
same,"Plasma aldosterone, Day 1, predose",[1],131.250 pg/mL
same,"Plasma aldosterone, Day 2, predose",[1],37.700 pg/mL
same,"Plasma aldosterone, Day 10, 12 hours postdose",[1],46.360 pg/mL
same,"Plasma aldosterone, Day 10, 24 hours postdose",[1],120.740 pg/mL
same,"Plasma aldosterone, Day 10, predose",[1],101.880 pg/mL
same,"Plasma aldosterone, Percent change from Day −1 to Day 10, predose",[1],−34.296%
same,"Plasma corticosterone, Day 1, 12 hours postdose",[1],889.0 pg/mL
same,"Plasma corticosterone, Day 1, predose",[1],5828.3 pg/mL
same,"Plasma corticosterone, Day 2, predose",[1],6328.3 pg/mL
same,"Plasma corticosterone, Day 10, 12 hours postdose",[1],2704.0 pg/mL
same,"Plasma corticosterone, Day 10, 24 hours postdose",[1],11182.0 pg/mL
same,"Plasma corticosterone, Day 10, predose",[1],8102.0 pg/mL
same,"Plasma corticosterone, Percent change from Day −1 to Day 10, predose",[1],60.6%
same,"Plasma 11-deoxycorticosterone, Day −1 predose","5.0 mg QD, low salt diet, mean",49.111 pg/mL
same,"Plasma 18-hydroxycorticosterone, Day −1 predose","5.0 mg QD, low salt diet, mean",966.3 pg/mL
same,"Plasma aldosterone, Day −1 predose","5.0 mg QD, low salt diet, mean",189.633 pg/mL
same,"Plasma corticosterone, Day −1 predose","5.0 mg QD, low salt diet, mean",3700.7 pg/mL
same,"Plasma 11-deoxycorticosterone, Day 1, 12 hours postdose","5.0 mg QD, low salt diet, mean",94.622 pg/mL
same,"Plasma 11-deoxycorticosterone, Day 1, predose","5.0 mg QD, low salt diet, mean",55.789 pg/mL
same,"Plasma 11-deoxycorticosterone, Day 10, 12 hours postdose","5.0 mg QD, low salt diet, mean",219.700 pg/mL
same,"Plasma 11-deoxycorticosterone, Day 10, 24 hours postdose","5.0 mg QD, low salt diet, mean",308.444 pg/mL
same,"Plasma 11-deoxycorticosterone, Day 10, predose","5.0 mg QD, low salt diet, mean",218.611 pg/mL
same,"Plasma 11-deoxycorticosterone, Percent change from Day −1 to Day 10, predose","5.0 mg QD, low salt diet, mean",573.144%
same,"Plasma 18-hydroxycorticosterone, Day 1, 12 hours postdose","5.0 mg QD, low salt diet, mean",162.3 pg/mL
same,"Plasma 18-hydroxycorticosterone, Day 1, predose","5.0 mg QD, low salt diet, mean",825.8 pg/mL
same,"Plasma 18-hydroxycorticosterone, Day 10, 12 hours postdose","5.0 mg QD, low salt diet, mean",405.2 pg/mL
same,"Plasma 18-hydroxycorticosterone, Day 10, 24 hours postdose","5.0 mg QD, low salt diet, mean",1298.0 pg/mL
same,"Plasma 18-hydroxycorticosterone, Day 10, predose","5.0 mg QD, low salt diet, mean",1159.6 pg/mL
same,"Plasma 18-hydroxycorticosterone, Percent change from Day −1 to Day 10","5.0 mg QD, low salt diet, mean",38.2%
same,"Plasma aldosterone, Day 1, 12 hours postdose","5.0 mg QD, low salt diet, mean",17.511 pg/mL
same,"Plasma aldosterone, Day 1, predose","5.0 mg QD, low salt diet, mean",182.800 pg/mL
same,"Plasma aldosterone, Day 10, 12 hours postdose","5.0 mg QD, low salt diet, mean",49.467 pg/mL
same,"Plasma aldosterone, Day 10, 24 hours postdose","5.0 mg QD, low salt diet, mean",125.811 pg/mL
same,"Plasma aldosterone, Day 10, predose","5.0 mg QD, low salt diet, mean",98.367 pg/mL
same,"Plasma aldosterone, Percent change from Day −1 to Day 10, predose","5.0 mg QD, low salt diet, mean",−36.400%
same,"Plasma corticosterone, Day 1, 12 hours postdose","5.0 mg QD, low salt diet, mean",890.3 pg/mL
same,"Plasma corticosterone, Day 1, predose","5.0 mg QD, low salt diet, mean",2726.3 pg/mL
same,"Plasma corticosterone, Day 10, 12 hours postdose","5.0 mg QD, low salt diet, mean",4738.9 pg/mL
same,"Plasma corticosterone, Day 10, 24 hours postdose","5.0 mg QD, low salt diet, mean",13976.7 pg/mL
same,"Plasma corticosterone, Day 10, predose","5.0 mg QD, low salt diet, mean",11962.2 pg/mL
same,"Plasma corticosterone, Percent change from Day −1 to Day 10, predose","5.0 mg QD, low salt diet, mean",460.2%
same,doses that markedly decrease aldosterone levels,low salt diet and normal salt diet,> 0.5 mg
same,inhibition of aldosterone synthesis,,"marked, sustained, selective, and generally dose dependent inhibition"
same,inhibition of aldosterone synthesis,listed as (R)-compound 1,"marked, sustained, selective, and generally dose dependent inhibition"
